Experimental data: US20260109707A1, “HETEROBIFUNCTIONAL COMPOUNDS AND METHODS OF TREATING DISEASE” (Halda Therapeutics OpCo. Inc., priority 2022, published 2026)

Assays:
[1] = biological target: T1, BRD4-BD1 (Homo sapiens, UniProt O60885); experiment: bromoKdELECT assay for binding affinity to BRD4-BD1; conditions: binding to BRD4-BD1, Table 4
T1 construct: made in house; host or cells: T7 phage grown in an E. coli host derived from the BL21 strain
Protocol: Compounds were tested using a bromoKdELECT assay. T7 phage strains displaying bromodomains were grown in parallel in 24-well blocks in an E. coli host derived from the BL21 strain. E. coli were grown to log-phase and infected with T7 phage from a frozen stock (multiplicity of infection=0.4) and incubated with shaking at 32° C. until lysis (90-150 minutes). The lysates were centrifuged (5,000×g) and filtered (0.2 μm) to remove cell debris. Streptavidin-coated magnetic beads were treated with biotinylated small molecule or acetylated peptide ligands for 30 minutes at room temperature to generate affinity resins for bromodomain assays. The liganded beads were blocked with excess biotin and washed with blocking buffer (SeaBlock (Pierce), 1% BSA, 0.05% Tween 20, 1 mM DTT) to remove unbound ligand and to reduce nonspecific phage binding. Binding reactions were assembled by combining bromodomains, liganded affinity beads, and test compounds in 1× binding buffer (17% SeaBlock, 0.33×PBS, 0.04% Tween 20, 0.02% BSA, 0.004% Sodium azide, 7.4 mM DTT). Test compounds were prepared as 1000× stocks in 100% DMSO. Kds were determined using an 11-point 3-fold compound dilution series with one DMSO control point. All compounds for Kd measurements are distributed by acoustic transfer (non-contact dispensing) in 100% DMSO. The compounds were then diluted directly into the assays such that the final concentration of DMSO was 0.09%. All reactions performed in polypropylene 384-well plates. Each was a final volume of 0.02 ml. The assay plates were incubated at room temperature with shaking for 1 hour and the affinity beads were washed with wash buffer (1×PBS, 0.05% Tween 20). The beads were then resuspended in elution buffer (1×PBS, 0.05% Tween […] non-biotinylated affinity ligand) and incubated at room temperature with shaking for 30 minutes. The bromodomain concentration in the eluates was measured by qPCR.

[2] = tested on: VCaP cells; experiment: Cellular growth inhibition assay for VCaP cells (CellTiter-Glo, 72 hours); type: cell-based, human; conditions: Homo sapiens, VCaP, 72 h
In short: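 Luminescent viability signal after 72 h of compound exposure gave GI50 values by four-parameter nonlinear regression. Compounds were added in 0.5% DMSO to cells plated 24 h earlier at 5000/well in DMEM containing 10% FBS.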

[3] = biological target: T2, progesterone receptor (Homo sapiens, UniProt P06401); experiment: PR Human Progesterone NHR Binding (Agonist Radioligand) Assay; conditions: binding to the progesterone receptor, cytosolic fractions of T47D cells, Table 12
T2 sequence (P06401 679-933 limits assumed): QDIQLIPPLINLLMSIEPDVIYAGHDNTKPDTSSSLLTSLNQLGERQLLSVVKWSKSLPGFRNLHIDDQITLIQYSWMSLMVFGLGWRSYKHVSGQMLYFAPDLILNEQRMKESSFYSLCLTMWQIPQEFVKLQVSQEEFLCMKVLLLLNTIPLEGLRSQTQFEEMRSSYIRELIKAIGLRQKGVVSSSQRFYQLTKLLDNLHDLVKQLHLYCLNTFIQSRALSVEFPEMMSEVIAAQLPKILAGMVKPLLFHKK
Protocol: Compounds were tested using the PR Human Progesterone NHR Binding (Agonist Radioligand) Assay, Cerep at Eurofins Discovery using a modified version of the protocol from Sarup et al. (Cancer Res 1988; 48:5071-5078). Briefly, cytosolic fractions of T47D cells were incubated with 0.5 nM [^3H]progesterone for 1 hour at 4° C. in the absence or presence of the test compound. Nonspecific binding was determined in the presence of 1 μM promegestone. Reactions were subjected to scintillation counting. Results are expressed as a percent inhibition of the control radioligand specific binding.

Row | SMILES | Kd [1] | GI50 [2] | Kd [3]
1 | CCNC(=O)C[C@@H]1N=C(c2ccc(N3CCC(OC4CCN(c5ccc(C(=O)N[C@H]6CC[C@H](Oc7ccc(C#N)c(Cl)c7)CC6)nn5)CC4)CC3)cc2)c2c(sc(C)c2C)-n2c(C)nnc21 [I-44] | 50 to 500 nM | < 500 nM | 50 to 500 nM
2 | CCNC(=O)C[C@@H]1N=C(c2ccc(OCC3CN(c4ccc(C(=O)N[C@H]5CC[C@H](Oc6ccc(C#N)c(Cl)c6)CC5)nn4)C3)cc2)c2c(sc(C)c2C)-n2c(C)nnc21 [I-29] |  | < 500 nM | 50 to 500 nM
3 | CCNC(=O)C[C@@H]1N=C(c2ccc(CC3CCN(c4ccc(C(=O)N[C@H]5CC[C@H](Oc6ccc(C#N)c(Cl)c6)CC5)nn4)CC3)cc2)c2c(sc(C)c2C)-n2c(C)nnc21 [I-20] | 50 to 500 nM | < 500 nM | 
4 | CCNC(=O)C[C@@H]1N=C(c2ccc(OCCOCCOC3CCN(c4ccc(C(=O)N[C@H]5CC[C@H](Oc6ccc(C#N)c(Cl)c6)CC5)nn4)CC3)cc2)c2c(sc(C)c2C)-n2c(C)nnc21 [I-10] |  | < 500 nM | 
5 | Cc1sc2c(c1C)C(c1ccc(Cl)cc1)=N[C@@H](CC(=O)NCCOCCOCCOC1CCN(c3ccc(C(=O)N[C@H]4CC[C@H](Oc5ccc(C#N)c(Cl)c5)CC4)nn3)CC1)c1nnc(C)n1-2 [I-2, N-[4-(3-chloro-4-cyano-phenoxy)cyclohexyl]-6-[4-[2-[2-[2-[[2-[(9S)-7-(4-chlorophenyl)-4,5,13-trimethyl-3-thia-1,8,11,12-tetrazatricyclo[8.3.0.0^2,6]trideca-2(6),4,7,10,12-pentaen-9-yl]acetyl]amino]ethoxy]ethoxy]ethoxy]-1-piperidyl]pyridazine-3-carboxamide] |  | < 500 nM | 50 to 500 nM
6 | Cc1sc2c(c1C)C(c1ccc(Cl)cc1)=N[C@@H](CC(=O)NCCOC1CCN(c3ccc(C(=O)N[C@H]4CC[C@H](Oc5ccc(C#N)c(Cl)c5)CC4)nn3)CC1)c1nnc(C)n1-2 [I-1, N-[4-(3-chloro-4-cyano-phenoxy)cyclohexyl]-6-[4-[2-[[2-[(9S)-7-(4-chlorophenyl)-4,5,13-trimethyl-3-thia-1,8,11,12-tetrazatricyclo[8.3.0.0^2,6]trideca-2(6),4,7,10,12-pentaen-9-yl]acetyl]amino]ethoxy]-1-piperidyl]pyridazine-3-carboxamide] | 50 to 500 nM | < 500 nM | 
7 | CCNC(=O)C[C@@H]1N=C(c2ccc(OCCOC3CCN(c4ccc(C(=O)N[C@H]5CC[C@H](Oc6ccc(C#N)c(Cl)c6)CC5)nn4)CC3)cc2)c2c(sc(C)c2C)-n2c(C)nnc21 [I-8] |  | < 500 nM | 
8 | CCNC(=O)C[C@@H]1N=C(c2ccc(OCCCN(C)c3ccc(C(=O)N[C@H]4CC[C@H](Oc5ccc(C#N)c(Cl)c5)CC4)nn3)cc2)c2c(sc(C)c2C)-n2c(C)nnc21 [I-48] |  | < 500 nM | 
9 | CCNC(=O)C[C@@H]1N=C(c2ccc(N3CC4(C3)CN(c3ccc(C(=O)N[C@H]5CC[C@H](Oc6ccc(C#N)c(Cl)c6)CC5)nn3)C4)cc2)c2c(sc(C)c2C)-n2c(C)nnc21 [I-24] | 50 to 500 nM | < 500 nM | 
10 | CCNC(=O)C[C@@H]1N=C(c2ccc(CCCOC3CCN(c4ccc(C(=O)N[C@H]5CC[C@H](Oc6ccc(C#N)c(Cl)c6)CC5)nn4)CC3)cc2)c2c(sc(C)c2C)-n2c(C)nnc21 [I-17] | 50 to 500 nM | < 500 nM | 
